Reference: patent US20050261130A1, “Novel surfactants and formulations” (Monsanto Technology LLC, priority 2000, published 2005)

Tests used:
[1] = Compatibility of surfactant with diammonium glyphosate concentrate (no phase separation, 50° C., 1 week); format: physicochemical; settings: 50° C. oven 1 week; for Compatible w/31% a.e. diammonium glyphosate at 10 wt % loading: 31 wt. % a.e. diammonium glyphosate/10 wt. % surfactant; for Compatible w/37% a.e. diammonium glyphosate at 12 wt % loading: 37 wt. % a.e. diammonium glyphosate/12 wt. % surfactant
Procedure: For the 31 wt. % a.e. NH4^+glyphosate/10 wt. % surfactant compositions: • 1.48 g of 41.9 wt % a.e. aqueous glyphosate diammonium (1.7 eq) salt was weighed into a vial. To the same vial was added 0.2 g of surfactant and 0.32 g deionized water. The remainder of the protocol is the same as that described for the 31 wt % potassium glyphosate samples. The surfactants identified in Table 4 that were compatible at the 31% a.e. ammonium/10 wt. % surfactant loading are indicated in Table 5 below.
For the 37 wt. % a.e. NH4^+glyphosate/12 wt. % surfactant compositions: • 1.76 g of 41.9 wt % a.e. aqueous glyphosate diammonium (1.7 eq) salt was weighed into a vial. To the same vial was added […]. The remainder of the protocol is the same as that described for the 31 wt % potassium glyphosate samples. The surfactants identified in Table 4 that were compatible at the 37% a.e. ammonium/12 wt. % surfactant loading are indicated in Table 5 below.

[2] = Compatibility of surfactant with potassium glyphosate concentrate (no phase separation, 50° C., 1 week); format: physicochemical; settings: 50° C. oven 1 week; for Compatible w/37% a.e. K + glyphosate at 12 wt % loading: 37 wt. % a.e. potassium glyphosate/12 wt. % surfactant; for Compatible w/45% a.e. K + glyphosate at 15% wt loading: 45 wt. % a.e. potassium glyphosate/15 wt. % surfactant; for Compatible w/40% a.e. K + glyphosate at 10% wt loading: 40 wt. % a.e. potassium glyphosate/10 wt. % surfactant
Procedure: For the 31 wt. % a.e. potassium glyphosate/10 wt. % surfactant compositions: 1.550 g of 40 wt. % a.e. aqueous glyphosate potassium salt solution was weighed into a vial. To the same vial, 0.200 g of surfactant was added. Enough deionized water was then added to the contents to bring the total weight to 2.000g. The mixture was stirred for 2 hours at room temperature and checked to see if a solution had been formed. If a solution was present, the test vial was allowed to stand at room temperature overnight. If a solution was still present, the test vial was placed in a 50° C. oven for 1 week. If no phase separation had occurred in one week, the surfactant being tested was considered “compatible.” All of the surfactants identified in Table 4 were compatible at the 31% a.e. potassium/10 wt. % surfactant loading.
For the 37 wt. % a.e. potassium glyphosate/12 wt. % surfactant compositions: 41.1 g of 45 wt. % a.e. aqueous glyphosate potassium salt was weighed to a container. To the same container was added 6.0 g of surfactant and 2.9 g deionized water for a total weight of 50.0 g. The remainder of the protocol is the same as that described for the 31 wt. % samples. The surfactants identified in Table 4 that were compatible at the 37% a.e. potassium/12 wt. % surfactant loading are indicated in Table 5 below.
For the 40 wt. % a.e. potassium glyphosate/10 wt. % surfactant compositions: 1.79 g of 45 wt. % a.e. aqueous glyphosate potassium salt was weighed into a vial. To the same vial was added 0.2 g of surfactant. The remainder of the protocol is the same as that described for the 31 wt. % samples. The surfactants identified in Table 4 that were compatible at the 40% a.e. potassium/10 wt. % surfactant loading are indicated in Table 5 below.
For the 45 wt. % a.e. potassium glyphosate/15 wt. % surfactant compositions: 1.100 g of solid mono potassium glyphosate was weighed into a vial. To the same vial was added 0.300 g surfactant. Enough deionized water was added to the vial to bring the final weight to 2.000 g. The remainder of the protocol is the same as that described for the 31 wt. % samples. The surfactants identified in Table 4 that were compatible at the 45% a.e. potassium/[…] are indicated in Table 5 below.

[3] = Brookfield viscosity (Model DV-11, Small Sample Adapter); format: physicochemical; settings: 10° C.
Procedure: (§1) Viscosities were measured using a Haake Model VT500(Haake, Inc., Karlsruhe Germany) equipped with the appropriate MV series cup and bob sensor system at a shear rate of 45 sec^−1. The temperature was varied with the attached water bath. For a few samples for which insufficient sample was available the viscosities were measured with a Brookfield Model DV-11 equipped with a Small Sample Adapter (Brookfield Laboratories, Inc., Stoughton, Mass.).

[4] = cited from earlier work
[5] = Haake viscosity (Haake VT500, shear rate 45 sec^−1); format: physicochemical; settings: 12 wt % surfactant
Procedure: as §1

[6] = Cloud point of aqueous concentrate compositions; format: physicochemical; settings: 12 wt % surfactant
Procedure: For aqueous solution concentrates, high temperature storage stability is often indicated by a cloud point of about 50° C. or more. Cloud point of a composition is normally determined by heating the composition until the solution becomes cloudy, and then allowing the composition to cool, with agitation, while its temperature is continuously monitored. A temperature reading taken when the solution clears is a measure of cloud point. A cloud point of 50° C. or more is normally considered acceptable for most commercial purposes for a glyphosate SL formulation. Ideally the cloud point should be 60° C. or more, and the composition should withstand temperatures as low as about −10° C. for up to about 7 days without crystal growth, even in the presence of seed crystals of the glyphosate salt.
Cloud points were measured by heating a small amount of the material in a test tube until the solution became hazy or cloudy then removing the test tube from the heat and observing the temperature at which the solution became clear on cooling. The temperature at which the solution became clear is noted as the cloud point.
Cloud point was determined for certain liquid compositions of Examples 66-69 as follows. A sample of the composition in a test tube was heated in a water bath until it became cloudy. The test tube was then removed from the water bath and the sample stirred with a thermometer until it became clear. The temperature at which the sample became clear was recorded as the cloud point of the composition.

[7] = tested on: Velvetleaf (ABUTH) and Japanese millet (ECHCF); test: Greenhouse herbicidal effectiveness, overall statements for both weeds; format: in vivo, Abutilon theophrasti; Echinochloa crus-galli; settings: summary sentence of the respective Example
From the text: The herbicidal effectiveness data set forth herein report “inhibition” as a percentage following a standard procedure in the art which reflects a visual assessment of plant mortality and growth reduction by comparison with untreated plants, made by technicians specially trained to make and record such observations. In all cases, a single technician makes all assessments of percent inhibition within any one experiment or trial. Such measurements are relied upon and regularly reported by Monsanto Company in the course of its herbicide business.
The following procedure was used for testing compositions of the Examples to determine herbicidal effectiveness, except where otherwise indicated. […]
Pots were assigned to different treatments in a fully randomized experimental design with 6 replications. A set of pots was left untreated as a reference against which effects of the treatments could later be evaluated.
Application of glyphosate compositions was made by spraying with a track sprayer fitted with a 9501 E nozzle calibrated to deliver a spray volume of 93 liters per hectare (l/ha) at a pressure of 165 kilopascals (kPa). After treatment, pots were returned to the greenhouse until ready for evaluation. […]

[8] = Density of formulations (Mettler DA-300 Density Meter); format: physicochemical; settings: 20° C.; 50.0% glyphosate acid (61% potassium glyphosate) solution of Example A
Procedure: The density was then determined using a Mettler DA-300 Density Meter and the concentrations in grams per liter was calculated.

[9] = Specific gravity (Mettler DA-300 Density/Specific Gravity Meter); format: physicochemical; settings: 20/15.6° C.; 30% a.e. by weight glyphosate monobasic salt solutions
Procedure: Specific gravities are measured using a Mettler DA-300 Density/Specific Gravity Meter.

Row | Molecule | Compatible w/31% a.e. diammonium glyphosate at 10 wt % loading [1] | Compatible w/37% a.e. diammonium glyphosate at 12 wt % loading [1] | Compatible w/37% a.e. K + glyphosate at 12 wt % loading [2] | Compatible w/45% a.e. K + glyphosate at 15% wt loading [2] | Viscosity Data 37% a.e. K + glyphosate at 12 wt % loading, Brookfield Vis. ([3]; Spindle 31, 12 rpm) | Viscosity Data 37% a.e. K + glyphosate at 12 wt % loading, Brookfield Vis. ([3]; Spindle 31, 60 rpm) | Viscosity Data 37% a.e. K + glyphosate at 12 wt % loading, Haake Vis. ([5]; 0° C.) [cPs] | Viscosity Data 37% a.e. K + glyphosate at 12 wt % loading, Haake Vis. ([5]; 5° C.) [cPs] | Viscosity Data 37% a.e. K + glyphosate at 12 wt % loading, Haake Vis. ([5]; 10° C.) [cPs] | Viscosity Data 37% a.e. K + glyphosate at 12 wt % loading, Haake Vis. ([5]; 15° C.) [cPs] | Viscosity Data 37% a.e. K + glyphosate at 12 wt % loading, Haake Vis. ([5]; 25° C.) [cPs] | Viscosity Data 37% a.e. K + glyphosate at 12 wt % loading, Haake Vis. ([5]; −5° C.) | Cloud Point Data 37% a.e. K + glyphosate at 12 wt % loading [6] [°C] | also measured
1 | O=C(O)CNCP(=O)(O)O [glyphosate, N-phosphonomethylglycine] | – | – | – | – | – | – | – | – | – | – | – | – | – | Solubility in water ([4]; 25° C.): 1.16 % by weight
2 | CCCCN(CCCC)CCCN [F] | – | – | Yes | Yes | – | – | 273.01 | 173.57 | 142.38 | 110.89 | 57.29 | 400.48 cPs | >90 | Compatible w/40% a.e. K + glyphosate at 10% wt loading [2]: Yes
3 | CCCCCCCCNCC(O)C(O)C(O)C(O)CO (centres unmarked) [AA] | Yes | Yes | Yes | Yes | – | – | – | – | – | – | – | – | >90 | Compatible w/40% a.e. K + glyphosate at 10% wt loading [2]: Yes; Viscosity Data 37% a.e. K + glyphosate at 12 wt % loading, Brookfield Viscosity ([3]; Spindle 31, 12 rpm): 12 rpm, 52.6 cPs; Viscosity Data 37% a.e. K + glyphosate at 12 wt % loading, Brookfield Viscosity ([3]; Spindle 31, 60 rpm): 60 rpm, 60.1 cPs
4 | (C12-14)O(CHCH3CH2)O—(CHCH3CH2)N(EO)x(EO)y x + y = 5 [Composition M121] | – | – | – | – | – | – | – | – | – | – | – | – | – | Herbicidal effectiveness overall or on both ABUTH and ECHCF, comparison in words [7]: more effective for potentiating the IPA
5 | O=C(O)CNCP(=O)([O-])O.[K+] [potassium, glyphosate potassium salt] | – | – | – | – | – | – | – | – | – | – | – | – | – | Density of the resulting solution [8]: approximately 1.4661 grams/milliliter; Solubility in pure water ([4]; 20° C., as salt): about 54 % by weight; Solubility in pure water, glyphosate acid equivalent ([4]; 20° C.): about 44 % glyphosate acid equivalent (a.e.) by weight; Specific Gravity [9]: 1.2539

Now from value to molecule, other results behind:

Row | Compatible w/31% a.e. diammonium glyphosate at 10 wt % loading [1] | Compatible w/37% a.e. diammonium glyphosate at 12 wt % loading [1] | Compatible w/37% a.e. K + glyphosate at 12 wt % loading [2] | Compatible w/45% a.e. K + glyphosate at 15% wt loading [2] | Viscosity Data 37% a.e. K + glyphosate at 12 wt % loading, Brookfield Vis. ([3]; Spindle 31, 12 rpm) | Viscosity Data 37% a.e. K + glyphosate at 12 wt % loading, Brookfield Vis. ([3]; Spindle 31, 60 rpm) | Viscosity Data 37% a.e. K + glyphosate at 12 wt % loading, Haake Vis. ([5]; 0° C.) [cPs] | Viscosity Data 37% a.e. K + glyphosate at 12 wt % loading, Haake Vis. ([5]; 5° C.) [cPs] | Viscosity Data 37% a.e. K + glyphosate at 12 wt % loading, Haake Vis. ([5]; 10° C.) [cPs] | Viscosity Data 37% a.e. K + glyphosate at 12 wt % loading, Haake Vis. ([5]; 15° C.) [cPs] | Viscosity Data 37% a.e. K + glyphosate at 12 wt % loading, Haake Vis. ([5]; 25° C.) [cPs] | Viscosity Data 37% a.e. K + glyphosate at 12 wt % loading, Haake Vis. ([5]; −5° C.) | Cloud Point Data 37% a.e. K + glyphosate at 12 wt % loading [6] [°C] | Molecule | also measured
6 | Yes | Yes | Yes | Yes | 12 rpm, 76.5 cp | 60 rpm, 78.2 cp | – | – | – | – | – | – | – | CCCCCCN(CCCN(CCCCCC)CC(O)C(O)C(O)C(O)CO)CC(O)C(O)C(O)C(O)CO (centres unmarked) [Surfactant AAA, 1,6 hexylaminoglucitol propane] | –
7 | No | No | Yes | – | 12 rpm, 114 cp | 60 rpm, 113 cp | – | – | – | – | – | – | – | CCCCCCCCN(C)CC(O)C(O)C(O)C(O)CO (centres unmarked) [UU] | –
8 | – | – | Yes | – | – | – | 231.17 | 150.26 | 138.80 | 82.51 | 49.37 | 397.16 cPs | >90 | NCCOCCOCCN [DD] | –
9 | No | No | Yes | – | 12 rpm, 86.5 cp | 60 rpm, 88.2 cp | – | – | – | – | – | – | – | CCCCCCCCCCCCCCCCCCN(C)CC(O)C(O)C(O)C(O)CO (centres unmarked) [SS] | –
10 | – | – | Yes | – | – | – | 2517 | 2269 | 1963 | 1420 | 1077 | −5° C., too thick | >90 | CC(C)CC(C)CC(C)COCCCNCCCN (centres unmarked) [R] | –
